Converted amounts (≈) assume the structure as drawn. The source made the active and inactive calls.

Usually EC50 stands for the concentration needed to bring the measured effect to its halfway point. For orientation: CC50 means the concentration giving 50% cytotoxicity. One may read the MIC as the smallest concentration in the dilution series that meets the test's criterion for growth inhibition. Lower therefore signals a more susceptible organism.

One data set concerns Human alphaherpesvirus 1. Nature of the data set: Antiviral activity against thymidine kinase-positive Herpes simplex virus 1 KOS infected in HEL cells assessed as reduction in virus-induced cytopathicity after 3 days. The following applies: Human alphaherpesvirus 1, KOS, 72 h. The data set is classed as functional, organism-based.
As to `CCCCCCCC(=O)NCC#Cc1cn([C@H]2C[C@H](O)[C@@H](COP(=O)(N[C@@H](C)C(=O)OCc3ccccc3)Oc3cccc4ccccc34)O2)c(=O)[nH]c1=O` (stereo partly specified), the EC50 is more than 100 µM.

In the case of `CCCCCCCC(=O)NCC#Cc1cn([C@H]2C[C@H](O)[C@@H](COP(=O)(N[C@@H](C)C(=O)OCC(C)C)Oc3cccc4ccccc34)O2)c(=O)[nH]c1=O` (stereo partly specified), the concentration for a half-maximal effect (EC50) was more than 100 µM.

Test system in the next data set: not listed separately
As to the kind of experiment: Cytotoxicity against HEL cells assessed as reduction in cell growth after 3 to 5 days by Coulter counting analysis. Format: cell-based. The following applies: human.
Consider `Nc1nc2c(ncn2COCCO)c(=O)[nH]1` [ACYCLOVIR], for which the cytotoxic concentration (CC50) was determined as 440 µM.

Consider `CCCCCCCC(=O)NCC#Cc1cn([C@H]2C[C@H](O)[C@@H](COP(=O)(N[C@@H](C)C(=O)OCc3ccccc3)Oc3cccc4ccccc34)O2)c(=O)[nH]c1=O` (stereo partly specified), for which the CC50 stood at 39 µM.

Consider `CCCCCCCC(=O)NCC#Cc1cn([C@H]2C[C@H](O)[C@@H](COP(=O)(N[C@@H](C)C(=O)OCC(C)C)Oc3cccc4ccccc34)O2)c(=O)[nH]c1=O` (stereo partly specified), for which the CC50 was 15 µM.

In a further data set the test system is Human betaherpesvirus 5. As to the kind of experiment: Antiviral activity against Human cytomegalovirus Davis infected in HEL cells assessed as reduction in virus-induced cytopathicity after 7 days. The data set is classed as functional, organism-based.
Conditions: not given
(Protection from cytopathic effect is a common read-out in antiviral testing.)
Regarding `CCCCCCCC(=O)NCC#Cc1cn([C@H]2C[C@H](O)[C@@H](COP(=O)(N[C@@H](C)C(=O)OCc3ccccc3)Oc3cccc4ccccc34)O2)c(=O)[nH]c1=O` (stereo partly specified), the outcome was inactive.

Consider `CCCCCCCC(=O)NCC#Cc1cn([C@H]2C[C@H](O)[C@@H](COP(=O)(N[C@@H](C)C(=O)OCC(C)C)Oc3cccc4ccccc34)O2)c(=O)[nH]c1=O` (stereo partly specified), for which the outcome was inactive.

A further data set deals with Escherichia coli. As to the kind of experiment: Antibacterial activity against Escherichia coli DH5[alpha] ATCC 53868 after overnight incubation by HT-SPOTi assay. The data set is classed as functional, organism-based.
Conditions: not given
Regarding `CCCCCCCC(=O)NCC#Cc1cn([C@H]2C[C@H](O)[C@@H](COP(=O)(N[C@@H](C)C(=O)OC)Oc3ccccc3)O2)c(=O)[nH]c1=O` (stereo partly specified), the result was inactive.

Consider `CCCCCCCC(=O)NCC#Cc1cn([C@H]2C[C@H](O)[C@@H](COP(=O)(N[C@@H](C)C(=O)OCc3ccccc3)Oc3cccc4ccccc34)O2)c(=O)[nH]c1=O` (stereo partly specified), for which the result was inactive.

Take `CCCCCCCC(=O)NCC#Cc1cn([C@H]2C[C@H](O)[C@@H](COP(=O)(N[C@@H](C)C(=O)OCC(C)C)Oc3cccc4ccccc34)O2)c(=O)[nH]c1=O` (stereo partly specified): the outcome was inactive.

A further data set has as its system Human alphaherpesvirus 3. Nature of the data set: Antiviral activity against thymidine kinase-positive Varicella zoster virus Oka infected in HEL cells assessed as reduction in viral plaque formation after 5 days. Format: functional, organism-based. The following applies: Human alphaherpesvirus 3, strain Oka vaccine, 120 h.
On to `Nc1nc2c(ncn2COCCO)c(=O)[nH]1` [ACYCLOVIR], for which the concentration for a half-maximal effect (EC50) is 2.6 µM.

For the compound `CCCCCCCC(=O)NCC#Cc1cn([C@H]2C[C@H](O)[C@@H](COP(=O)(N[C@@H](C)C(=O)OCc3ccccc3)Oc3cccc4ccccc34)O2)c(=O)[nH]c1=O` (stereo partly specified), the EC50 turned out to be 8.6 µM.

`CCCCCCCC(=O)NCC#Cc1cn([C@H]2C[C@H](O)[C@@H](COP(=O)(N[C@@H](C)C(=O)OCC(C)C)Oc3cccc4ccccc34)O2)c(=O)[nH]c1=O` (stereo partly specified): the EC50 was 20 µM.

The next data set deals with Human alphaherpesvirus 3. As to the kind of experiment: Antiviral activity against thymidine kinase-deficient Varicella zoster virus 07-1 infected in HEL cells assessed as reduction in viral plaque formation after 5 days. The following applies: Human alphaherpesvirus 3, 07-1, HEL, 120 h. The data set is classed as functional, organism-based.
As for `Nc1nc2c(ncn2COCCO)c(=O)[nH]1` [ACYCLOVIR], the EC50 worked out at 140 µM.

For the compound `CCCCCCCC(=O)NCC#Cc1cn([C@H]2C[C@H](O)[C@@H](COP(=O)(N[C@@H](C)C(=O)OCc3ccccc3)Oc3cccc4ccccc34)O2)c(=O)[nH]c1=O` (stereo partly specified), the concentration for a half-maximal effect (EC50) is more than 20 µM.

Regarding `CCCCCCCC(=O)NCC#Cc1cn([C@H]2C[C@H](O)[C@@H](COP(=O)(N[C@@H](C)C(=O)OCC(C)C)Oc3cccc4ccccc34)O2)c(=O)[nH]c1=O` (stereo partly specified), the EC50 was more than 20 µM.

The next data set deals with Human betaherpesvirus 5. Nature of the data set: Antiviral activity against Human cytomegalovirus AD169 infected in HEL cells assessed as reduction in virus-induced cytopathicity after 7 days. Format: functional, organism-based.
Conditions: not given
`CCCCCCCC(=O)NCC#Cc1cn([C@H]2C[C@H](O)[C@@H](COP(=O)(N[C@@H](C)C(=O)OCc3ccccc3)Oc3cccc4ccccc34)O2)c(=O)[nH]c1=O` (stereo partly specified): the outcome was inactive.

Consider `CCCCCCCC(=O)NCC#Cc1cn([C@H]2C[C@H](O)[C@@H](COP(=O)(N[C@@H](C)C(=O)OCC(C)C)Oc3cccc4ccccc34)O2)c(=O)[nH]c1=O` (stereo partly specified), for which the outcome was inactive.

Test system in a further data set: not listed separately
Nature of the data set: Cytotoxicity against HEL cells assessed as morphological changes after 3 to 5 days […]. The data set is classed as cell-based. The following applies: human.
On to `Nc1nc2c(ncn2COCCO)c(=O)[nH]1` [ACYCLOVIR], for which the MCC is more than 440 µM.

In the case of `CCCCCCCC(=O)NCC#Cc1cn([C@H]2C[C@H](O)[C@@H](COP(=O)(N[C@@H](C)C(=O)OCc3ccccc3)Oc3cccc4ccccc34)O2)c(=O)[nH]c1=O` (stereo partly specified), the MCC is more than 100 µM.

Consider `CCCCCCCC(=O)NCC#Cc1cn([C@H]2C[C@H](O)[C@@H](COP(=O)(N[C@@H](C)C(=O)OCC(C)C)Oc3cccc4ccccc34)O2)c(=O)[nH]c1=O` (stereo partly specified), for which the MCC was more than 100 µM.

For another data set, the system named is Mycobacterium tuberculosis. As to the kind of experiment: Antibacterial activity against Mycobacterium tuberculosis H37Rv ATCC 27294 up to 2 weeks by HT-SPOTi assay. The data set is classed as functional. The following applies: H37Rv ATCC 27294, 336 h.
As for `CCCCCCCC(=O)NCC#Cc1cn([C@H]2C[C@H](O)[C@@H](COP(=O)(N[C@@H](C)C(=O)OC)Oc3ccccc3)O2)c(=O)[nH]c1=O` (stereo partly specified), the minimum inhibitory concentration (MIC) is more than 250 µg/mL.

In the case of `CCCCCCCC(=O)NCC#Cc1cn([C@H]2C[C@H](O)[C@@H](COP(=O)(N[C@@H](C)C(=O)OCc3ccccc3)Oc3cccc4ccccc34)O2)c(=O)[nH]c1=O` (stereo partly specified), the MIC was determined as 250 µg/mL (≈ 323 µM).

Turning to `CCCCCCCC(=O)NCC#Cc1cn([C@H]2C[C@H](O)[C@@H](COP(=O)(N[C@@H](C)C(=O)OCC(C)C)Oc3cccc4ccccc34)O2)c(=O)[nH]c1=O` (stereo partly specified), the minimum inhibitory concentration (MIC) was 62.5 µg/mL (≈ 84.4 µM).

The next data set has as its system Human alphaherpesvirus 2. Nature of the data set: Antiviral activity against Herpes simplex virus 2 G infected in HEL cells assessed as reduction in virus-induced cytopathicity after 3 days. Format: functional, organism-based. The following applies: Human alphaherpesvirus 2, strain G, 72 h.
`Nc1nc2c(ncn2COCCO)c(=O)[nH]1` [ACYCLOVIR]: the EC50 was 0.1 µM.

On to `CCCCCCCC(=O)NCC#Cc1cn([C@H]2C[C@H](O)[C@@H](COP(=O)(N[C@@H](C)C(=O)OCc3ccccc3)Oc3cccc4ccccc34)O2)c(=O)[nH]c1=O` (stereo partly specified), for which the 50% effective concentration (EC50) is more than 100 µM.

As for `CCCCCCCC(=O)NCC#Cc1cn([C@H]2C[C@H](O)[C@@H](COP(=O)(N[C@@H](C)C(=O)OCC(C)C)Oc3cccc4ccccc34)O2)c(=O)[nH]c1=O` (stereo partly specified), the 50% effective concentration (EC50) was more than 100 µM.

In a further data set the test system is Vaccinia virus. Nature of the data set: Antiviral activity against Vaccinia virus infected in HEL cells assessed as reduction in virus-induced cytopathicity after 3 days. The following applies: Orthopoxvirus vaccinia. Format: functional, organism-based.
For `CCCCCCCC(=O)NCC#Cc1cn([C@H]2C[C@H](O)[C@@H](COP(=O)(N[C@@H](C)C(=O)OCc3ccccc3)Oc3cccc4ccccc34)O2)c(=O)[nH]c1=O` (stereo partly specified), the outcome was inactive.

For `CCCCCCCC(=O)NCC#Cc1cn([C@H]2C[C@H](O)[C@@H](COP(=O)(N[C@@H](C)C(=O)OCC(C)C)Oc3cccc4ccccc34)O2)c(=O)[nH]c1=O` (stereo partly specified), the result was inactive.

Another data set concerns Human alphaherpesvirus 1. Nature of the data set: Antiviral activity against thymidine kinase-deficient ACV-resistant Herpes simplex virus 1 B-2006 infected in HEL cells assessed as reduction in virus-induced cytopathicity after 3 days. Format: functional, organism-based. The following applies: Human alphaherpesvirus 1, B-2006, HEL, 72 h.
Turning to `CCCCCCCC(=O)NCC#Cc1cn([C@H]2C[C@H](O)[C@@H](COP(=O)(N[C@@H](C)C(=O)OCc3ccccc3)Oc3cccc4ccccc34)O2)c(=O)[nH]c1=O` (stereo partly specified), the concentration for a half-maximal effect (EC50) is more than 100 µM.

On to `CCCCCCCC(=O)NCC#Cc1cn([C@H]2C[C@H](O)[C@@H](COP(=O)(N[C@@H](C)C(=O)OCC(C)C)Oc3cccc4ccccc34)O2)c(=O)[nH]c1=O` (stereo partly specified), for which the concentration giving a half-maximal response (EC50) is more than 100 µM.

The values are drawn from ChEMBL document CHEMBL3259765, “ProTides of N-(3-(5-(2'-deoxyuridine))prop-2-ynyl)octanamide as potential anti-tubercular and anti-viral agents” (Bioorg Med Chem, 2014).
